{"source": "patent US10308607B2", "about": "“Fucosidase inhibitors” (HORIZON ORPHAN LLC, priority 2015, dated 2019)", "key": {"[1]": {"test": "Biodistribution in mouse liver and colon", "type": "in vivo", "conditions": "for Conc. of cmpd II in colon / Mean conc. of cmpd II in colon: mouse colon; for Conc. of cmpd II in colon / Conc. of cmpd II in liver: individual animal; for Conc. of cmpd II in liver / Mean conc. of cmpd II in liver: mouse liver", "description": "To assess the biodistribution of compound II (see Example 2) in mouse liver and colon, compound II was administered intravenously at a dosage of 1 mg/kg."}, "[2]": {"test_system": "SKOV3", "test": "Multiplexed cytotoxicity assay", "type": "cell-based", "conditions": "SKOV3, ovary carcinoma, 72 hour", "description": "(§1) To assess the cytotoxicity of compound II (see Example 2) in cancer and normal cells, the cells were grown in RPMI1640, 10% FBS, 2 mM L-alanyl-L-Glutamine, 1 mM Na Pyruvate or a special medium in a humidified atmosphere of 5% CO2 at 37° C. Cells were seeded into 384-well plates and incubated in a humidified atmosphere of 5% CO2 at 37° C. Compound II was added 24 hours post cell seeding. At the same time, a time zero untreated cell plate was generated.\n(§2) After a 72 hour incubation period, cells were fixed and stained with fluorescently labeled antibodies and nuclear dye to allow visualization of nuclei, apoptotic cells and mitotic cells. Apoptotic cells were detected using an anti-active caspase-3 antibody. Mitotic cells were detected using an anti phospho-histone-3 antibody.\n(§3) Compound II was serially diluted 3.16-fold and assayed over 9 concentrations. Automated fluorescence microscopy was carried out using a GE Healthcare IN Cell Analyzer 1000, and images were collected with a 4× objective.\n(§4) Twelve bit tiff images were acquired using the InCell Analyzer 1000 3.2 and analyzed with Developer Toolbox 1.6 software. EC50 and IC50 values were calculated using nonlinear regression to fit data to a sigmoidal 4 point, 4 parameter One-Site dose response model, where: y (fit)=A+[(B−A)/(1+((C/x)^D))]. Curve-fitting, EC50/IC50 calculations and report generation are performed using a custom data reduction engine MathIQ based software (AIM).\n(§5) The multiplexed cytotoxicity assay uses a cell image based analysis technique where cells are fixed and stained with fluorescently labeled antibodies and nuclear dye to visualize nuclei, and apoptotic and mitotic cells. Apoptotic cells are detected using an anti-active caspase-3 antibody. Mitotic cells are detected using an anti phospho-histone-3 antibody. Cell proliferation is measured by the signal intensity of the incorporated nuclear dye. The cell proliferation assay output is referred to as the relative cell count. To determine the cell proliferation end point, the cell proliferation data output is transformed to percent of control (POC) using the following formula: POC=relative cell count(compound wells)/relative cell count(vehicle wells)×100.\n(§6) Relative cell count IC50 is the test compound concentration at 50% of maximal possible response. A relative cell count EC50 is the test compound concentration at the curve inflection point or half the effective response (parameter C of the fitted curve solution). GI50 is the concentration needed to reduce the observed growth by half. This is the concentration that inhibits the growth midway between untreated cells and the number of cells seeded in the well (Time zero value).\n(§7) The activated caspase-3 marker labels cells from early to late stage apoptosis. The output is shown as a fold increase of apoptotic cells over vehicle background normalized to the relative cell count in each well. Concentrations of test compound that cause a 5-fold induction in the caspase-3 signal indicates significant apoptosis induction. Wells with concentrations higher than the relative cell count IC95 are eliminated from the caspase3 induction analysis.\n(§8) The phospho-histone-3 marker labels mitotic cells. The output is shown as a fold induction of mitotic cells over vehicle background normalized to the relative cell count in each well. When the fold induction of mitotic cell signal over background is ˜1, there is “no effect” on the cell cycle. Two or more fold increase in phospho-histone-3 signal over vehicle background indicates significant test compound induction of mitotic block.\n(§9) Two or more fold decrease in the phospho-histone-3 signal may indicate G1/S block only when cytotoxicity levels are below the measured relative cell count IC95. […]"}, "[3]": {"test": "Multiplexed cytotoxicity assay", "type": "cell-based", "conditions": "human, read-out: Cytotoxic EC50", "description": "as §1, §2, §3, §4, §5, §6, §7, §8, §9"}, "[4]": {"test_system": "K562", "test": "Multiplexed cytotoxicity assay", "type": "cell-based", "conditions": "K562, blood leukemia, 72 hour", "description": "as §1, §2, §3, §4, §5, §6, §7, §8, §9"}, "[5]": {"test_system": "HeLa", "test": "Multiplexed cytotoxicity assay", "type": "cell-based", "conditions": "cervix carcinoma, 72 hour", "description": "as §1, §2, §3, §4, §5, §6, §7, §8, §9"}, "[6]": {"test_system": "U-87 MG", "test": "Multiplexed cytotoxicity assay", "type": "cell-based", "conditions": "brain blastoma, 72 hour", "description": "as §1, §2, §3, §4, §5, §6, §7, §8, §9"}, "[7]": {"test_system": "HPH", "test": "Multiplexed cytotoxicity assay", "type": "cell-based", "conditions": "normal primary hepatocyte, 72 hour", "description": "as §1, §2, §3, §4, §5, §6, §7, §8, §9"}, "[8]": {"test_system": "HUMSC", "test": "Multiplexed cytotoxicity assay", "type": "cell-based", "conditions": "normal mesenchymal stem, 72 hour", "description": "as §1, §2, §3, §4, §5, §6, §7, §8, §9"}, "[9]": {"test_system": "HT-1080", "test": "Multiplexed cytotoxicity assay", "type": "cell-based", "conditions": "HT-1080, connective sarcoma, 72 hour", "description": "as §1, §2, §3, §4, §5, §6, §7, §8, §9"}, "[10]": {"test_system": "BxPC-3", "test": "Multiplexed cytotoxicity assay", "type": "cell-based", "conditions": "BxPC-3, pancreas carcinoma, 72 hour", "description": "as §1, §2, §3, §4, §5, §6, §7, §8, §9"}, "[11]": {"test_system": "NHDF", "test": "Multiplexed cytotoxicity assay", "type": "cell-based", "conditions": "normal skin, 72 hour", "description": "as §1, §2, §3, §4, §5, §6, §7, §8, §9"}, "[12]": {"test_system": "A549", "test": "Multiplexed cytotoxicity assay", "type": "cell-based", "conditions": "A549, lung carcinoma, 72 hour", "description": "as §1, §2, §3, §4, §5, §6, §7, §8, §9"}, "[13]": {"test_system": "HUVEC", "test": "Multiplexed cytotoxicity assay", "type": "cell-based", "conditions": "normal endothelium, 72 hour", "description": "as §1, §2, §3, §4, §5, §6, §7, §8, §9"}, "[14]": {"test_system": "HRPTEpiC", "test": "Multiplexed cytotoxicity assay", "type": "cell-based", "conditions": "normal renal, 72 hour", "description": "as §1, §2, §3, §4, §5, §6, §7, §8, §9"}, "[15]": {"test": "Multiplexed cytotoxicity assay", "type": "cell-based, human", "conditions": "human, HepG2 cells (liver carcinoma), read-out: Cytotoxic EC50", "description": "as §1, §2, §3\nas §4, with “Curve-fitting, EC50/IC50 calculations and report generation are performed using a custom data reduction engine MathIQ based software (AIM).” left out"}, "[16]": {"test_system": "HepG2", "test": "Multiplexed cytotoxicity assay", "type": "cell-based, human", "conditions": "HepG2, liver carcinoma, 72 hour", "description": "as §1, §2, §3\nas §4, with “Curve-fitting, EC50/IC50 calculations and report generation are performed using a custom data reduction engine MathIQ based software (AIM).” left out"}}, "note": "Where “and” joins values, the source holds several entries; their conditions need not be identical. Equal entries are not always repeated. Where two headings read alike, the source gives them in different places."}
{"compound": "C[C@@H]1N[C@H](CNC(=O)c2cccc3c2C(=O)c2ccccc2-3)[C@@H](O)[C@H](O)[C@@H]1O", "note": "[Compound II]", "values": [{"measurement": "Conc. of cmpd II in colon", "setting": "[1]; IV 1 mg/kg qdx1, 1 h", "value": "1770 ng/g and 1640 ng/g and 1930 ng/g"}, {"measurement": "Mean conc. of cmpd II in colon", "setting": "[1]; IV 1 mg/kg qdx1, 1 h", "value": 1780, "unit": "ng/g"}, {"measurement": "Conc. of cmpd II in colon", "setting": "[1]; IV 1 mg/kg qdx1, 8 h", "value": "638 ng/g and 289 ng/g and 872 ng/g"}, {"measurement": "Mean conc. of cmpd II in colon", "setting": "[1]; IV 1 mg/kg qdx1, 8 h", "value": 600, "unit": "ng/g"}, {"measurement": "Conc. of cmpd II in liver", "setting": "[1]; IV 1 mg/kg qdx1, 1 h", "value": "298 ng/g and 301 ng/g and 188 ng/g"}, {"measurement": "Mean conc. of cmpd II in liver", "setting": "[1]; IV 1 mg/kg qdx1, 1 h", "value": 262, "unit": "ng/g"}, {"measurement": "Conc. of cmpd II in liver", "setting": "[1]; IV 1 mg/kg qdx1, 8 h", "value": "9.03 ng/g and 7.64 ng/g and 12.9 ng/g"}, {"measurement": "Mean conc. of cmpd II in liver", "setting": "[1]; IV 1 mg/kg qdx1, 8 h", "value": 9.86, "unit": "ng/g"}, {"measurement": "G1/S arrest", "setting": "[2]", "value": 98, "unit": "µM"}, {"measurement": "EC50 at 72 h", "setting": "[3]; A549 cells (lung carcinoma)", "value": 29, "unit": "µM"}, {"measurement": "EC50 at 72 h", "setting": "[3]; BxPC-3 cells (pancreas carcinoma), BxPC-3, pancreas carcinoma", "value": 43, "unit": "µM"}, {"measurement": "EC50 at 72 h", "setting": "[3]; HPH (normal primary hepatocytes), normal primary hepatocyte", "value": "> 100", "unit": "µM"}, {"measurement": "EC50 at 72 h", "setting": "[3]; HRPTEpiC cells (normal renal)", "value": 72, "unit": "µM"}, {"measurement": "EC50 at 72 h", "setting": "[3]; HT-29 cells (colon carcinoma), HT-29, colon carcinoma", "value": 31, "unit": "µM"}, {"measurement": "EC50 at 72 h", "setting": "[3]; HT-1080 cells (connective sarcoma), HT-1080, connective sarcoma", "value": 21, "unit": "µM"}, {"measurement": "EC50 at 72 h", "setting": "[3]; HUMSC cells (normal mesenchymal stem cells)", "value": 9, "unit": "µM"}, {"measurement": "EC50 at 72 h", "setting": "[3]; HUVEC cells (normal endothelium)", "value": 14, "unit": "µM"}, {"measurement": "EC50 at 72 h", "setting": "[3]; HeLa cells (cervix carcinoma)", "value": 47, "unit": "µM"}, {"measurement": "EC50 at 72 h", "setting": "[3]; K562 cells (blood leukemia)", "value": 98, "unit": "µM"}, {"measurement": "EC50 at 72 h", "setting": "[3]; LNCaP cells (prostate carcinoma)", "value": 54, "unit": "µM"}, {"measurement": "EC50 at 72 h", "setting": "[3]; MDA-MB-231 cells (breast carcinoma), MDA-MB-231, breast carcinoma", "value": 44, "unit": "µM"}, {"measurement": "EC50 at 72 h", "setting": "[3]; NHDF cells (normal skin)", "value": 22, "unit": "µM"}, {"measurement": "EC50 at 72 h", "setting": "[3]; SKOV3 cells (ovary carcinoma)", "value": "> 100", "unit": "µM"}, {"measurement": "EC50 at 72 h", "setting": "[3]; SNU-423 cells (liver carcinoma), SNU-423, liver carcinoma", "value": "> 100", "unit": "µM"}, {"measurement": "EC50 at 72 h", "setting": "[3]; U-87 MG cells (brain blastoma)", "value": 34, "unit": "µM"}, {"measurement": "G1/S arrest", "setting": "[4]", "value": 93, "unit": "µM"}, {"measurement": "G1/S arrest", "setting": "[5]", "value": 70, "unit": "µM"}, {"measurement": "G1/S arrest", "setting": "[6]", "value": 26, "unit": "µM"}, {"measurement": "Primary effect", "setting": "[7]", "value": "no effect"}, {"measurement": "G1/S arrest", "setting": "[8]", "value": 10, "unit": "µM"}, {"measurement": "G1/S arrest", "setting": "[9]", "value": 78, "unit": "µM"}, {"measurement": "G1/S arrest", "setting": "[10]", "value": 55, "unit": "µM"}, {"measurement": "G1/S arrest", "setting": "[11]", "value": 14, "unit": "µM"}, {"measurement": "G1/S arrest", "setting": "[12]", "value": 21, "unit": "µM"}, {"measurement": "G1/S arrest", "setting": "[13]", "value": 14, "unit": "µM"}, {"measurement": "G1/S arrest", "setting": "[14]", "value": 10, "unit": "µM"}, {"measurement": "EC50 at 72 h", "setting": "[15]", "value": 44, "unit": "µM"}, {"measurement": "G1/S arrest", "setting": "[16]", "value": 36, "unit": "µM"}]}
